Test results as given in patent EP0900211B1 (PHARMACIA & UPJOHN COMPANY, priority 1996, dated 1997).
Where a name gives a salt, the structure may show the parent alone.

target: Stromelysin (Homo sapiens, UniProt P08254); experiment: MMP inhibition, particle concentration fluorescence assay; type: biochemical; settings: in vitro; fluorescein/biotin substrate; MMP buffer pH 7.5; room temperature
Sequence (P08254 100-477): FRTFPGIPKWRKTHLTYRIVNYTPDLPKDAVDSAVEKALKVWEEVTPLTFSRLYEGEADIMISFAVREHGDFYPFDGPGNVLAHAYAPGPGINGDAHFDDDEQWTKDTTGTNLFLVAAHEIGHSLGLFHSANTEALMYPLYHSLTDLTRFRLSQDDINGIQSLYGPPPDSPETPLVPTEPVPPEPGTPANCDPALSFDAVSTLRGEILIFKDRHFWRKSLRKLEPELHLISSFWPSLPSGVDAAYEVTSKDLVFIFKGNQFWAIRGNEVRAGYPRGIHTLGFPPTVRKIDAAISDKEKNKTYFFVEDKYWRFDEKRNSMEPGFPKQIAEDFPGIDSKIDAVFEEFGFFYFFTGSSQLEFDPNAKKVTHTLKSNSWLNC
Description: Inhibitory activity is evaluated in one or more of the MMP enzymes (stromelysin, gelatinase, and collagenase) in vitro using particle concentration fluorescence assay. An inhibitor binds to MMP enzymes which prevents the degradation of a substrate by stromelysin, gelatinase, or collagenase. The substrate has attached to it a fluorescein and a biotin moiety. The intact substrate then binds to an avidin-coated particle via the biotin moiety. Once the particle is washed and dried, a fluorescent signal is generated since the fluorescent group is attached to the particle. Without an inhibitor present, the substrate is degraded by MMP enzymes and the fluorescein group is removed, therefore, no fluorescent signal can be detected. Testing compounds are dissolved in DMSO to the desired concentration, then the solutions are diluted to 1:5 with MMP buffer (50 mM Tris-HCl, pH 7.5; 150 mM NaCl; 0.02% NaN3). Serial two-fold dilutions of each compound are prepared. A concentrated, activated enzyme solution is transferred into each plate of the testing compounds, and the mixture is incubated at room temperature for 15 minutes. […] At this point, the substrate mixture is mixed with 0.1% avidin-coated polystyrene particles. After 15 minutes, the fluorescence values are measured following filtration and washing of the beads. Ki values are then calculated.

| Compound | Ki |
| --- | --- |
| O=C(Nc1n[nH]c(=S)s1)N[C@@H](Cc1ccccc1)C(=O)NCCCCc1ccccc1 [Example 37, aα-[[[(4,5-Dihydro-5-thioxo-1,3,4-thiadiazol-2-yl)amino]carbonyl]amino]-N-(4-phenylbutyl)-(S)-benzenepropanamide] | 0.82 µM |
| O=C(Nc1n[nH]c(=S)s1)N[C@@H](Cc1ccccc1)C(=O)NCCCO [Example 41, α-[[[(4,5-Dihydro-5-thioxo-1,3,4-thiadiazol-2-yl)amino]-carbonyl]amino]-N-(3-hydroxypropyl)-(S)-benzenepropanamide] | 1.12 µM |
| CCOC(=O)CCNC(=O)[C@H](Cc1ccccc1)NC(=O)Nc1n[nH]c(=S)s1 [Example 42, N-[[(4,5-Dihydro-5-thioxo-1,3,4-thiadiazol-2-yl)amino]carbonyl]-L-phenylalanyl-β-alanine ethyl ester] | 0.78 µM |
| CNC(=O)CCNC(=O)[C@H](Cc1ccccc1)NC(=O)Nc1n[nH]c(=S)s1 [Example 43] | 1.34 µM |
| O=C(O)CCNC(=O)[C@H](Cc1ccccc1)NC(=O)Nc1n[nH]c(=S)s1 [Example 44] | 1.08 µM |
| COC(=O)[C@H](CO[Si](C)(C)C(C)(C)C)NC(=O)Nc1n[nH]c(=S)s1 [Example 45, N-[[(4,5-Dihydro-5-thioxo-1,3,4-thiadiazol-2-yl)amino]carbonyl]-O-[(1,1-dimethylethyl)dimethylsilyl]-L-serine methyl ester] | 1.53 µM |
| CNC(=O)[C@H](CO[Si](C)(C)C(C)(C)C)NC(=O)Nc1n[nH]c(=S)s1 [Example 46, 2-[[[(4,5-Dihydro-5-thioxo-1,3,4-thiadiazol-2-yl)amino]carbonyl]amino]-3-[(1,1-dimethylethyl)-dimethylsilyloxy]-N-methyl-(S)-propanamide] | 0.75 µM |
| COC(=O)[C@H](Cc1ccc(O[Si](C)(C)C(C)(C)C)cc1)NC(=O)Nc1n[nH]c(=S)s1 [Example 47, N-[[(4,5-Dihydro-5-thioxo-1,3,4-thiadiazol-2-yl)amino]carbonyl]-O-[(1,1-dimethylethyl)dimethylsilyl]-L-tyrosine methyl ester] | 6.37 µM |
| O=C(Nc1n[nH]c(=S)s1)N[C@@H](Cc1ccccc1)C(=O)NCc1ccc2c(c1)OCO2 [Example 49, α-[[[(4,5-Dihydro-5-thioxo-1,3,4-thiadiazol-2-yl)amino]-carbonyl]amino]-N-(piperonyl)-(S)-benzenepropanamide] | 1 µM |
| O=C(Nc1n[nH]c(=S)s1)N[C@@H](Cc1ccccc1)C(=O)N1CCN(c2ccccc2)CC1 [Example 50, (S)-1-[2-[[[(4,5-Dihydro-5-thioxo-1,3,4-thiadiazol-2-yl)amino]carbonyl]amino]-1-oxo-3-phenylpropyl]-4-phenylpiperazine] | 1.68 µM |
| O=C(Nc1n[nH]c(=S)s1)N[C@@H](Cc1ccccc1)C(=O)NCCCc1ccccc1 [Example 51, α-[[[(4,5-Dihydro-5-thioxo-1,3,4-thiadiazol-2-yl)amino]carbonyl]amino]-N-(3-phenylpropyl)-(S)-benzenepropanamide] | 1.02 µM |
| O=C(Nc1n[nH]c(=S)s1)N[C@@H](Cc1ccccc1)C(=O)NCc1ccc(C(F)(F)F)cc1 [Example 52, α-[[[(4,5-Dihydro-5-thioxo-1,3,4-thiadiazol-2-yl)amino]carbonyl]-amino]-N-[(4-trifluoromethylphenyl)methyl]-(S)-benzenepropanamide] | 0.75 µM |
| O=C(Nc1n[nH]c(=S)s1)N[C@@H](Cc1ccccc1)C(=O)NCc1ccc([N+](=O)[O-])cc1 [Example 53, α-[[[(4,5-Dihydro-5-thioxo-1,3,4-thiadiazol-2-yl)amino]carbonyl]amino]-N-[(4-nitrophenyl)methyl]-(S)-benzenepropanamide] | 1.31 µM |
| CC(C)(C)c1ccc(CNC(=O)[C@H](Cc2ccccc2)NC(=O)Nc2n[nH]c(=S)s2)cc1 [Example 54, α-[[[(4,5-Dihydro-5-thioxo-1,3,4-thiadiazol-2-yl)amino]-carbonyl]amino]-N-[[4-(1,1-dimethylethyl)phenyl]methyl]-(S)-benzenepropanamide] | 1.74 µM |
| O=C(Nc1n[nH]c(=S)s1)N[C@@H](Cc1ccccc1)C(=O)N1CCN(C(c2ccccc2)c2ccccc2)CC1 [Example 55, (S)-1-[2-[[[(4,5-Dihydro-5-thioxo-1,3,4-thiadiazol-2-yl)amino]carbonyl]amino]-1-oxo-3-phenylpropyl]-4-(benzhydryl)piperazine] | 4.25 µM |
| O=C(Nc1n[nH]c(=S)s1)N[C@@H](Cc1ccccc1)C(=O)N1CCNCC1 [Example 56, (S)-1-[2-[[[(4,5-Dihydro-5-thioxo-1,3,4-thiadiazol-2-yl)amino]carbonyl]amino]-1-oxo-3-phenylpropyl]piperazine trifluoroacetate] | 5.27 µM |
| O=C(Nc1n[nH]c(=S)s1)N[C@@H](Cc1ccccc1)C(=O)NCc1nc2ccccc2[nH]1 [Example 57, N-(1H-Benzimidazol-2-ylmethyl)-α-[[[(4,5-dihydro-5-thioxo-1,3,4-thiadiazol-2-yl)amino]carbonyl]amino]-(S)-benzenepropanamide] | 0.64 µM |

| Compound | Ki |
| --- | --- |
| O=C(Nc1n[nH]c(=S)s1)N[C@@H](Cc1ccccc1)C(=O)NCc1cccc2ccccc12 [Example 58, α-[[[(4,5-Dihydro-5-thioxo-1,3,4-thiadiazol-2-yl)amino]carbonyl]amino)-N-(1-naphthylmethyl)-(S)-benzenepropanamide] | 0.8 µM |
| COC(=O)[C@H](Cc1ccc(N)cc1)NC(=O)Nc1n[nH]c(=S)s1 [Example 59, N-[[(4,5-Dihydro-5-thioxo-1,3,4-thiadiazol-2-yl)amino]carbonyl]-L-(4-aminophenyl)alanine methyl ester] | 2.95 µM |
| O=C(Nc1n[nH]c(=S)s1)N[C@@H](CC1CCCCC1)C(=O)NCCc1ccccc1 [Example 62, α-[[[(4,5-Dihydro-5-thioxo-1,3,4-thiadiazol-2-yl)amino]carbonyl]amino]-N-(2-phenylethyl)-(S)-cyclohexanepropanamide] | 0.65 µM |
| COC(=O)[C@H](COCc1ccccc1)NC(=O)Nc1n[nH]c(=S)s1 [Example 63, N-[[(4,5-Dihydro-5-thioxo-1,3,4-thiadiazol-2-yl)amino]carbonyl]-O-(phenylmethyl)-L-serine methyl ester] | 2.39 µM |
| COC(=O)[C@@H](NC(=O)Nc1n[nH]c(=S)s1)[C@@H](C)OCc1ccccc1 [Example 64, N-[[(4,5-Dihydro-5-thioxo-1,3,4-thiadiazol-2-yl)amino]carbonyl]-O-(phenylmethyl)-L-threonine methyl ester] | 9.56 µM |
| COC(=O)[C@H](CSCc1ccc(C)cc1)NC(=O)Nc1n[nH]c(=S)s1 [Example 65, N-[[(4,5-Dihydro-5-thioxo-1,3,4-thiadiazol-2-yl)amino]carbonyl]-S-[(4-methylphenyl)methyl]-L-cysteine methyl ester] | 2.55 µM |
| COC(=O)[C@H](CSCc1ccc(OC)cc1)NC(=O)Nc1n[nH]c(=S)s1 [Example 68, N-[[(4,5-Dihydro-5-thioxo-1,3,4-thiadiazol-2-yl)amino]carbonyl]-S-[(4-methoxyphenyl)methyl]-L-cysteine methyl ester] | 2.05 µM |
| CNC(=O)[C@H](CSCc1ccc(C)cc1)NC(=O)Nc1n[nH]c(=S)s1 [Example 70, 2-[[[(4,5-Dihydro-5-thioxo-1,3,4-thiadiazol-2-yl)amino]-carbonyl]amino]-N-methyl-3-[[(4-methylphenyl)methyl]thio]-(R)-propanamide] | 1.2 µM |
| COC(=O)[C@H](CSCc1ccccc1)NC(=O)Nc1n[nH]c(=S)s1 [Example 71, N-[[(4,5-Dihydro-5-thioxo-1,3,4-thiadiazol-2-yl)amino]carbonyl]-S-(phenylmethyl)-L-cysteine methyl ester] | 2.51 µM |
| CNC(=O)[C@H](CSCc1ccccc1)NC(=O)Nc1n[nH]c(=S)s1 [Example 72, 2-[[[(4,5-Dihydro-5-thioxo-1,3,4-thiadiazol-2-yl)amino]carbonyl]-amino]-N-methyl-3-[(phenylmethyl)thio]-(R)-propanamide] | 1.05 µM |
| CNC(=O)[C@H](COC(C)(C)C)NC(=O)Nc1n[nH]c(=S)s1 [Example 73, 2-[[[(4,5-Dihydro-5-thioxo-1,3,4-thiadiazol-2-yl)amino]carbonyl]-amino]-3-(1,1-dimethylethoxy)-N-methyl-(S)-propanamide] | 1.6 µM |
| COC(=O)[C@@H](NC(=O)Nc1n[nH]c(=S)s1)[C@@H](C)OC(C)(C)C [Example 74] | 1.87 µM |
| COC(=O)[C@H](Cc1ccc(-c2ccccc2)cc1)NC(=O)Nc1n[nH]c(=S)s1 [Example 78, α-[[[(4,5-Dihydro-5-thioxo-1,3,4-thiadiazol-2-yl)amino]carbonyl]amino]-(S)-(1,1'-biphenyl)-4-propanoic acid methyl ester] | 3.02 µM |
| CNC(=O)[C@H](Cc1ccc(-c2ccccc2)cc1)NC(=O)Nc1n[nH]c(=S)s1 [Example 79, α-[[[(4,5-Dihydro-5-thioxo-1,3,4-thiadiazol-2-yl)amino]carbonyl]amino]-N-methyl-(S)-(1,1'-biphenyl)-4-propanamide] | 7.39 µM |
| COC(=O)[C@H](Cc1ccc(C(C)(C)C)cc1)NC(=O)Nc1n[nH]c(=S)s1 [Example 80, N-[[(4,5-Dihydro-5-thioxo-1,3,4-thiadiazol-2-yl)amino]carbonyl]-4-(1,1-dimethylethyl)-L-phenylalanine methyl ester] | 0.8 µM |
| CNC(=O)[C@H](Cc1ccc(C(C)(C)C)cc1)NC(=O)Nc1n[nH]c(=S)s1 [Example 81, α-[[[(4,5-dihydro-5-thioxo-1,3,4-thiadiazol-2-yl)amino]carbonyl]amino]-4-(1,1-dimethylethyl)-N-methyl-(S)-benzenepropanamide] | 1.82 µM |
